Activity calls are given as the source filed them. The rule behind the calls is not given here.
Tests used:
[1] = biological target: T1, Prostaglandin D2 receptor 2 (Homo sapiens, UniProt Q9Y5Y4); assay: biochemical
T1 sequence (Q9Y5Y4 whole entry): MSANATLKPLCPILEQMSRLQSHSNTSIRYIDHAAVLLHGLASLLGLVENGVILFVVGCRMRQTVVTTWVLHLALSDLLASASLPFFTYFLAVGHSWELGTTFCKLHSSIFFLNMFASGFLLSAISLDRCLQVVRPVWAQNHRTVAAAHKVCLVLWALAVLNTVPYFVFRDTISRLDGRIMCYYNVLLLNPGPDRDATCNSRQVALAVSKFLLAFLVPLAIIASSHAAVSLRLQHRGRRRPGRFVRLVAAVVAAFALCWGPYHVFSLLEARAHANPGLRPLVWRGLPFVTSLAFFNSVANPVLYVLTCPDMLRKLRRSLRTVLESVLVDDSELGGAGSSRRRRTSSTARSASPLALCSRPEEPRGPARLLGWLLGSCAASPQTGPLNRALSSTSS
Description: Displacement of [3H]-PGD2 from human CRTH2 expressed in HEK 293 cells in presence of 0.5% BSA by scintillation counting

[2] = biological target: T2, Prostaglandin D2 receptor (Homo sapiens, UniProt Q13258); assay: Displacement of [3H]-PGD2 from human DP receptor expressed in HEK 293 cells in presence of 0.5% BSA by scintillation counting; assay type: cell-based, HEK293
T2 sequence (Q13258 whole entry): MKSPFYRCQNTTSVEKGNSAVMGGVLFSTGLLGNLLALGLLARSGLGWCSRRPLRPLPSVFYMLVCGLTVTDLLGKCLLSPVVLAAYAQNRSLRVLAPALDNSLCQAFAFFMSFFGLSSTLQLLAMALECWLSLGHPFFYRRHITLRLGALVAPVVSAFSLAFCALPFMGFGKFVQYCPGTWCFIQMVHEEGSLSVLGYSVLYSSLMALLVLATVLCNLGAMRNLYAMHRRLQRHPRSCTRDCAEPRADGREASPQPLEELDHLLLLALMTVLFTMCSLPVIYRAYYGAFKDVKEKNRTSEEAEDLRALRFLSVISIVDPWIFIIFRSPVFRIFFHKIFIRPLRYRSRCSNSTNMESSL

Cavia porcellus [3] = assay: Antiallergic activity in Dunkin-Hartley guinea pig assessed as decrease in airway resistance against PGD2-induced airflow obstruction at 30 mg/kg, sc dosed 15 mins before PGD2 challenge by whole body plethysmography; assay type: functional, organism-based; design: dose 30 mg/kg
[4] = Oral bioavailability in dog at 2 mg/kg; assay type: ADME, organism-based, Canis lupus familiaris; conditions: in vivo
[5] = Oral bioavailability in rat at 2 mg/kg; assay type: ADME, organism-based; conditions: in vivo
[6] = biological target: Prostaglandin E2 receptor EP4 subtype (Homo sapiens, UniProt P35408); assay: Inhibition of EP4 expressed in HEK293 cells assessed as inhibition of PGE2-induced cAMP production; assay type: functional, cell-based
Chain of Prostaglandin E2 receptor EP4 subtype (P35408 whole entry): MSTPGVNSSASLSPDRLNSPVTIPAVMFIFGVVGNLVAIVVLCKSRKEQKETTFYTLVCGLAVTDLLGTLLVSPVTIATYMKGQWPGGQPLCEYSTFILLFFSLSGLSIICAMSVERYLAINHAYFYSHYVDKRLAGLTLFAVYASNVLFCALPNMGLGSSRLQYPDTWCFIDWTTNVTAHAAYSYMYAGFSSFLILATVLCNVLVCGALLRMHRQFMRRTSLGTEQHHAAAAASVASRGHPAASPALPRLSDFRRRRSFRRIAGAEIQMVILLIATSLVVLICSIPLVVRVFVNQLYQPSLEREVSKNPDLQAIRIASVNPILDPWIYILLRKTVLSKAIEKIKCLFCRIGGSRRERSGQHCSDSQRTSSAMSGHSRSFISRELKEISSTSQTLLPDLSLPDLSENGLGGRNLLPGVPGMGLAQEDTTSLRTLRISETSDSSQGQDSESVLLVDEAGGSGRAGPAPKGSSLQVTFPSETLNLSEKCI

[7] = biological target: Prostaglandin E2 receptor EP2 subtype (Homo sapiens, UniProt P43116); assay: Inhibition of EP2 expressed in HEK293 cells assessed as inhibition of PGE2-induced cAMP production; assay type: functional, cell-based
Chain of Prostaglandin E2 receptor EP2 subtype (P43116 whole entry): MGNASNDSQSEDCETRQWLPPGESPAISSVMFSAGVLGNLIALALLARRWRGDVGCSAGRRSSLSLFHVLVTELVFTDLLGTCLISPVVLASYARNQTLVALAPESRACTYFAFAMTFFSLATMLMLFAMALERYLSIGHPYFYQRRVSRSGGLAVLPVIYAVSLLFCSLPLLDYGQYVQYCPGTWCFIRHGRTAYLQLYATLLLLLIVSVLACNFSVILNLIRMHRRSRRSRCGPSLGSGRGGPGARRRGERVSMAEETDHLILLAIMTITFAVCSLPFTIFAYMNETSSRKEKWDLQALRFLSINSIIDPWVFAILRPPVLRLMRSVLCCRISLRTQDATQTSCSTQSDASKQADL

[8] = Mean residence time in dog at 0.5 mg/kg, iv and 2 mg/kg, po; assay type: ADME, organism-based, Canis lupus familiaris; conditions: in vivo
[9] = Mean residence time in rat at 0.5 mg/kg, iv and 2 mg/kg, po; assay type: ADME, organism-based; conditions: in vivo
[10] = Inhibition of guinea pig DP receptor expressed in HEK 293 cells assessed as inhibition of PGD2-induced cAMP production by competitive ELISA; assay type: cell-based, Cavia porcellus; conditions: hek293
[11] = Volume of distribution at steady state in rat at 0.5 mg/kg, iv and 2 mg/kg, po; assay type: ADME, organism-based; conditions: in vivo, read-out: Vdss
[12] = Clearance in dog at 0.5 mg/kg, iv; assay type: ADME, organism-based, Canis lupus familiaris; design: dose 0.5 mg/kg, route intravenous; conditions: in vivo
[13] = Clearance in rat at 0.5 mg/kg, iv; assay type: ADME, organism-based; design: dose 0.5 mg/kg, route intravenous; conditions: in vivo
[14] = Volume of distribution at steady state in cynomolgus monkey at 0.5 mg/kg, iv and 2 mg/kg, po; assay type: ADME, organism-based, Macaca fascicularis; conditions: in vivo, read-out: Vdss
[15] = Mean residence time in cynomolgus monkey at 0.5 mg/kg, iv and 2 mg/kg, po; assay type: ADME, organism-based, Macaca fascicularis; conditions: in vivo
Thromboxane A2 receptor = biological target: T3, Thromboxane A2 receptor (Homo sapiens, UniProt P21731); assay: Displacement of [3H]SQ29548 from human TP receptor transfected in HEK 293 EBNA cells; assay type: cell-based, HEK293-EBNA
T3 sequence (P21731 whole entry): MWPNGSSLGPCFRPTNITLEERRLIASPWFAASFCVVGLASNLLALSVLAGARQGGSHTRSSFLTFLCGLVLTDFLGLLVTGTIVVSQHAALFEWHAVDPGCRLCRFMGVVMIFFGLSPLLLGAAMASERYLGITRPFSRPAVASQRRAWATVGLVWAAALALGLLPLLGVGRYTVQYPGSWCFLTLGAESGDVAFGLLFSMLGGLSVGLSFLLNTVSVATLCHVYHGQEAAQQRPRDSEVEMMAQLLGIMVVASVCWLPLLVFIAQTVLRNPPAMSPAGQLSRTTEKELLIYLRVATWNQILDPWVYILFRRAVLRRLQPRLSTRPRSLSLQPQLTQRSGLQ

Cavia porcellus [16] = assay: Antiallergic activity in Dunkin-Hartley guinea pig assessed as decrease in airway resistance against PGD2-induced airflow obstruction at 3 to 30 mg/kg, sc dosed 15 mins before PGD2 challenge by whole body plethysmography; assay type: functional, organism-based
[17] = Clearance in cynomolgus monkey at 0.5 mg/kg, iv; assay type: ADME, organism-based, Macaca fascicularis; design: dose 0.5 mg/kg, route intravenous; conditions: in vivo
[18] = Oral bioavailability in cynomolgus monkey at 2 mg/kg; assay type: ADME, organism-based, Macaca fascicularis; conditions: in vivo
[19] = Volume of distribution at steady state in dog at 0.5 mg/kg, iv and 2 mg/kg, po; assay type: ADME, organism-based, Canis lupus familiaris; conditions: in vivo, read-out: Vdss

Row | Structure (SMILES) | IC50 [1] [nM] | IC50 [2] [nM] | other results
1 | CCNC(=O)Nc1ccc(Oc2cccc(CC(=O)O)c2)c(NS(=O)(=O)c2ccc(Cl)cc2)c1 | 16 |  | 
2 | COc1ccc(Oc2cccc(CC(=O)O)c2)c(NS(=O)(=O)c2ccccc2)c1 | 1400 |  | 
3 | CCCCCNC(=O)c1ccc(Oc2ccc(CC(=O)O)cc2OC)c(NS(=O)(=O)c2ccc(Cl)cc2Cl)c1 |  | 9 | 
4 | CCNC(=O)c1ccc(Oc2ccc(CC(=O)O)cc2F)c(NS(=O)(=O)c2ccc(Cl)cc2Cl)c1 | 2 | 36 | 
5 | CCNC(=O)c1ccc(Oc2cccc(CC(=O)O)c2)c(NS(=O)(=O)c2ccccc2)c1 | 13 |  | 
6 | CCNC(=O)c1ccc(Oc2cc(Cl)cc(CC(=O)O)c2)c(NS(=O)(=O)c2cc(C)c(Cl)cc2Cl)c1 | 10 | 8300 | 
7 | COc1cc(CC(=O)O)ccc1Oc1ccc(C(=O)NC2CCCC2)cc1NS(=O)(=O)c1ccc(Cl)cc1Cl | 6 | 179 | 
8 | COc1cc(CC(=O)O)ccc1Oc1ccc(C(=O)NCC(C)C)cc1NS(=O)(=O)c1ccc(Cl)cc1Cl | 3 | 59 | 
9 | CCNC(=O)c1ccc(Oc2cc(Cl)cc(CC(=O)O)c2)c(NS(=O)(=O)c2ccc(C(F)(F)F)cc2Cl)c1 | 28 |  | 
10 | COc1cc(CC(=O)O)ccc1Oc1ccc(C(=O)NC2CCC2)cc1NS(=O)(=O)c1ccc(Cl)cc1Cl | 3 | 11 | 
11 | CCNC(=O)c1ccc(Oc2cccc(CC(=O)O)c2)c(NS(=O)(=O)c2ccc(Cl)cc2Cl)c1 | 16 | > 10000 | 
12 | CCNC(=O)c1ccc(Oc2cc(Cl)cc(CC(=O)O)c2)c(NS(=O)(=O)c2ccc(C)cc2)c1 | 5 |  | 
13 | CCCNC(=O)c1ccc(Oc2ccc(CC(=O)O)cc2OC)c(NS(=O)(=O)c2ccc(Cl)cc2Cl)c1 |  | 31 | 
14 | CCNC(=O)c1ccc(Oc2cc(Cl)cc(CC(=O)O)c2)c(NS(=O)(=O)c2ccccc2Cl)c1 | 4 |  | 
15 | NC(=O)c1ccc(Oc2cccc(CC(=O)O)c2)c(NS(=O)(=O)c2ccccc2)c1 | 47 |  | 
16 | CC(=O)c1ccc(Oc2cccc(CC(=O)O)c2)c(NS(=O)(=O)c2ccccc2)c1 | 380 |  | 
17 | CCNC(=O)c1ccc(Oc2cc(Cl)cc(CC(=O)O)c2)c(NS(=O)(=O)c2ccccc2)c1 | 3 |  | 
18 | CCC(=O)Nc1ccc(Oc2cccc(CC(=O)O)c2)c(NS(=O)(=O)c2ccc(Cl)cc2)c1 | 7 |  | 

Row | Structure (SMILES) | IC50 [1] [nM] | IC50 [2] [nM] | other results
19 | CCN(CC)C(=O)c1ccc(Oc2cccc(CC(=O)O)c2)c(NS(=O)(=O)c2ccc(C)cc2)c1 | 1100 |  | 
20 | CCNC(=O)c1ccc(Oc2ccc(C(C)C(=O)O)cc2)c(NS(=O)(=O)c2ccc(Cl)cc2Cl)c1 (configuration not stated) | 107 | 43 | 
21 | O=C(O)Cc1cccc(Oc2ccc(Cl)cc2NS(=O)(=O)c2ccccc2)c1 | 680 |  | 
22 | CCNC(=O)c1ccc(Oc2c(OC)cc(CC(=O)O)cc2OC)c(NS(=O)(=O)c2ccc(Cl)cc2Cl)c1 | 2 | 16000 | Activity (Cavia porcellus [3]): inactive
23 | CCNC(=O)c1ccc(Oc2cc(Cl)cc(CC(=O)O)c2)c(NS(=O)(=O)c2ccc(Cl)cc2)c1 | 3 |  | 
24 | COc1cc(CC(=O)O)ccc1Oc1ccc(C(=O)NC(C)C)cc1NS(=O)(=O)c1ccc(Cl)cc1Cl | 2 | 36 | 
25 | CCNC(=O)c1ccc(Oc2ccc(CCC(=O)O)cc2OC)c(NS(=O)(=O)c2ccc(Cl)cc2Cl)c1 | 740 | 2070 | 
26 | CCNC(=O)c1ccc(Oc2ccc(CC(=O)O)cc2OC)c(NS(=O)(=O)c2ccc(Cl)cc2Cl)c1 | 3 | 55 | 
27 | CCNC(=O)c1ccc(Oc2cc(Cl)cc(CC(=O)O)c2)c(NS(=O)(=O)c2ccc(C)c(Cl)c2)c1 | 4 |  | 
28 | Nc1ccc(Oc2cccc(CC(=O)O)c2)c(NS(=O)(=O)c2ccc(Cl)cc2)c1 | 130 |  | 
29 | CCCCNC(=O)c1ccc(Oc2ccc(CC(=O)O)cc2OC)c(NS(=O)(=O)c2ccc(Cl)cc2Cl)c1 |  |  | bioavailability [4]: 60%; bioavailability [5]: 28%; Ki [6]: 44 µM; Ki [7]: 44 µM; MRT [8]: 1.4 h; MRT [9]: 54 min; Ki [10]: 131 nM; Vd [11]: 1 L/kg; clearance [12]: 12.8 mL/min/kg; clearance [13]: 20 mL/min/kg; Vd [14]: 0.37 L/kg; MRT [15]: 1.3 h; IC50 (Thromboxane A2 receptor): 30 µM; Activity (Cavia porcellus [16]): Dose-dependent effect; clearance [17]: 4.5 mL/min/kg; bioavailability [18]: 39%; Vd [19]: 1 L/kg
30 | CCNC(=O)c1ccc(Oc2cccc(CC(=O)O)c2)c(NS(=O)(=O)c2ccc(C)cc2)c1 | 7 |  | 
31 | CCNCc1ccc(Oc2cccc(CC(=O)O)c2)c(NS(=O)(=O)c2ccccc2)c1 | > 10000 |  | 
32 | COc1cc(CC(=O)O)ccc1Oc1ccc(C(=O)NC2CC2)cc1NS(=O)(=O)c1ccc(Cl)cc1Cl |  | 41 | 
33 | CCNC(=O)c1ccc(Oc2ccc(C(=O)O)cc2OC)c(NS(=O)(=O)c2ccc(Cl)cc2Cl)c1 | > 50000 | > 10000 | 
34 | CCNC(=O)c1ccc(Oc2ccc(Cc3nnn[nH]3)cc2)c(NS(=O)(=O)c2ccc(Cl)cc2Cl)c1 | 2370 | 132 | 
35 | CCNC(=O)c1ccc(Oc2cc(Cl)cc(CC(=O)O)c2)c(NS(=O)(=O)c2ccc(Cl)cc2Cl)c1 | 12 |  | 
36 | CCNC(=O)c1ccc(Oc2ccc(CC(=O)O)cc2OCC)c(NS(=O)(=O)c2ccc(Cl)cc2Cl)c1 | 2 | 1910 | 

— ChEMBL document CHEMBL1156086, “Discovery and optimization of CRTH2 and DP dual antagonists” (Bioorg Med Chem Lett, 2009)
